# Data as given in US20060229433A1, “Modified antiviral peptides with increased activity and cell membrane affinity” (priority 2003, published 2006).
# System: C8166 cells
# Test: Toxicity on C8166 cells (daily cell count, trypan-blue exclusion)
# Assay type: cell-based
# Conditions: at doses up to 10 μM
# Description: Samples of 3×10^5/100 μL C8166 cells were preincubated in 96-well microtiter plates in culture medium containing various concentrations of peptide. After a 1 h treatment at 37° C., 100 μl of diluted viral solution of HIV-1 was added. The cells were exposed to the virus for 1 h at 37° C. at a multiplicity of infection of 1000 TCID50 per ml. The cells were washed three times and cultured at 3×10^5/ml of R10 with the treatment in 24-well plates incubated at 37° C. C8166 culture medium was replaced at Day-4 post-infection. The treatment was permanent before virus adsorption, during virus adsorption and after infection. Assays on C8166 cells have been performed at least twice and in duplicate. Toxicity was evaluated by daily cell count and trypan-blue exclusion assay. Infection of C8166 T-cells with HIV-1 was assessed by virus-induced cytopathic effects (syncytia formation) and by quantification of cell free p24 viral protein in the culture supernatants. Measurements of HIV-1 p24^gag concentration in the culture supernatants were achieved by ELISA (ALLIANCE® HIV-1 p24 kit, Perkin Elmer, life sciences, USA).
row,SMILES,toxicity on cells
1,"C[C@H](NC(=O)[C@H](CCCNC(=N)N)NC(=O)CNC(=O)[C@@H]1CCCN1C(=O)CN)C(=O)N[C@@H](Cc1ccccc1)C(=O)NCCCC[C@H](NC(=O)[C@H](Cc1ccccc1)NC(=O)[C@H](C)NC(=O)[C@H](CCCNC(=N)N)NC(=O)CNC(=O)[C@@H]1CCCN1C(=O)CN)C(=O)NCCCC[C@H](NC(=O)[C@H](CCCCNC(=O)[C@H](Cc1ccccc1)NC(=O)[C@H](C)NC(=O)[C@H](CCCNC(=N)N)NC(=O)CNC(=O)[C@@H]1CCCN1C(=O)CN)NC(=O)[C@H](Cc1ccccc1)NC(=O)[C@H](C)NC(=O)[C@H](CCCNC(=N)N)NC(=O)CNC(=O)[C@@H]1CCCN1C(=O)CN)C(=O)NCCCC[C@H](NC(=O)[C@H](CCCCNC(=O)[C@H](CCCCNC(=O)[C@H](Cc1ccccc1)NC(=O)[C@H](C)NC(=O)[C@H](CCCNC(=N)N)NC(=O)CNC(=O)[C@@H]1CCCN1C(=O)CN)NC(=O)[C@H](Cc1ccccc1)NC(=O)[C@H](C)NC(=O)[C@H](CCCNC(=N)N)NC(=O)CNC(=O)[C@@H]1CCCN1C(=O)CN)NC(=O)[C@H](CCCCNC(=O)[C@H](Cc1ccccc1)NC(=O)[C@H](C)NC(=O)[C@H](CCCNC(=N)N)NC(=O)CNC(=O)[C@@H]1CCCN1C(=O)CN)NC(=O)[C@H](Cc1ccccc1)NC(=O)[C@H](C)NC(=O)[C@H](CCCNC(=N)N)NC(=O)CNC(=O)[C@@H]1CCCN1C(=O)CN)C(=O)NCCCCC(=O)O [S5, SPC3-(δ-aminovaleric acid)]",no toxicity
2,"C[C@H](NC(=O)[C@H](CCCNC(=N)N)NC(=O)CNC(=O)[C@@H]1CCCN1C(=O)CN)C(=O)N[C@@H](Cc1ccccc1)C(=O)NCCCC[C@H](NC(=O)[C@H](Cc1ccccc1)NC(=O)[C@H](C)NC(=O)[C@H](CCCNC(=N)N)NC(=O)CNC(=O)[C@@H]1CCCN1C(=O)CN)C(=O)NCCCC[C@H](NC(=O)[C@H](CCCCNC(=O)[C@H](Cc1ccccc1)NC(=O)[C@H](C)NC(=O)[C@H](CCCNC(=N)N)NC(=O)CNC(=O)[C@@H]1CCCN1C(=O)CN)NC(=O)[C@H](Cc1ccccc1)NC(=O)[C@H](C)NC(=O)[C@H](CCCNC(=N)N)NC(=O)CNC(=O)[C@@H]1CCCN1C(=O)CN)C(=O)NCCCC[C@H](NC(=O)[C@H](CCCCNC(=O)[C@H](CCCCNC(=O)[C@H](Cc1ccccc1)NC(=O)[C@H](C)NC(=O)[C@H](CCCNC(=N)N)NC(=O)CNC(=O)[C@@H]1CCCN1C(=O)CN)NC(=O)[C@H](Cc1ccccc1)NC(=O)[C@H](C)NC(=O)[C@H](CCCNC(=N)N)NC(=O)CNC(=O)[C@@H]1CCCN1C(=O)CN)NC(=O)[C@H](CCCCNC(=O)[C@H](Cc1ccccc1)NC(=O)[C@H](C)NC(=O)[C@H](CCCNC(=N)N)NC(=O)CNC(=O)[C@@H]1CCCN1C(=O)CN)NC(=O)[C@H](Cc1ccccc1)NC(=O)[C@H](C)NC(=O)[C@H](CCCNC(=N)N)NC(=O)CNC(=O)[C@@H]1CCCN1C(=O)CN)C(=O)NCCCC(=O)O [S6, SPC3-(γ-aminobutyric acid)]",no toxicity
